In patent publication US9615576B2, “Pesticidal compositions and processes related thereto” (Dow AgroSciences LLC, priority 2011, dated 2017):

Columns and labels:
[1] = tested on: Beet Armyworm (BAW) (Spodoptera exigua); experiment: Bioassays on Beet Armyworm (BAW), 128-well diet tray assay; assay type: in vivo; conditions: 168 h, 50 μg/cm^2 test compound on artificial diet, second instar larvae, 25° C., five to seven days, average of eight wells, read-out: BAW Rating (% mortality)
Outline: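 Second-instar larvae (1–5 per well) on artificial diet surface-treated with 50 μg/cm^2 compound applied in 90:10 acetone-water and dried; eight wells per compound. Held 5–7 days at 25° C., 14:10 light-dark. Percent mortality scored per well and averaged over eight wells.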

[2] = tested on: Corn Earworm (CEW) (Helicoverpa zea); experiment: Bioassays on Corn Earworm (CEW), 128-well diet tray assay; assay type: in vivo; conditions: 168 h, 50 μg/cm^2 test compound on artificial diet, second instar larvae, 25° C., five to seven days, average of eight wells, read-out: CEW Rating (% mortality)
Outline: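 Second-instar larvae (one to five per well) placed on artificial diet treated with 50 μg/cm^2 compound in 90:10 acetone-water, dried; eight wells per compound. Held at 25° C, 14:10 light-dark, five to seven days; percent mortality averaged over wells.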

| Structure (SMILES) | mortality at 50 µg/cm2 [1] [%] | mortality at 50 µg/cm2 [2] [%] |
| --- | --- | --- |
| O=C(CC(F)(F)F)NC1CCc2cc(/C=C/C(c3cc(Cl)c(Cl)c(Cl)c3)C(F)(F)F)ccc21 (centres unmarked) [BC4, (E)-3,3,3-trifluoro-N-(5-(4,4,4-trifluoro-3-(3,4,5-trichlorophenyl)but-1-enyl)-2,3-dihydro-1H-inden-1-yl)propanamide] | 50 to 100 | 50 to 100 |
| O=C(CC(F)(F)F)NC1CCCc2cc(/C=C/C(c3cc(Cl)c(Cl)c(Cl)c3)C(F)(F)F)ccc21 (centres unmarked) [BC5] | 50 to 100 | 50 to 100 |
| O=C(NC1CCc2cc(/C=C/C(c3cc(Cl)c(Cl)c(Cl)c3)C(F)(F)F)ccc21)C1CC1 (centres unmarked) [BC6] | 50 to 100 | 50 to 100 |
| O=C(NC1CCCc2cc(/C=C/C(c3cc(Cl)c(Cl)c(Cl)c3)C(F)(F)F)ccc21)C1CC1 (centres unmarked) [BC7] | 50 to 100 | 50 to 100 |
| O=C(CC(F)(F)F)NC1CCc2cc(/C=C/C(c3cc(Cl)c(F)c(Cl)c3)C(F)(F)F)ccc21 (centres unmarked) [BC8] | 50 to 100 | 50 to 100 |
| O=C(Cc1ccc(Cl)nc1)NC1CCc2cc(/C=C/C(c3cc(Cl)c(F)c(Cl)c3)C(F)(F)F)ccc21 (centres unmarked) [BC9] | 50 to 100 | 50 to 100 |
| Fc1c(Cl)cc(C(/C=C/c2ccc3c(c2)CCC3NCCC(F)(F)F)C(F)(F)F)cc1Cl (centres unmarked) [BC10, (E)-5-(3-(3,5-dichloro-4-fluorophenyl)-4,4,4-trifluorobut-1-en-1-yl)-N-(3,3,3-trifluoropropyl)-2,3-dihydro-1H-inden-1-amine] | 50 to 100 | 50 to 100 |
| O=C(CC(F)(F)F)NCC(=O)n1ccc2cc(/C=C/C(c3cc(Cl)c(F)c(Cl)c3)C(F)(F)F)ccc21 (centres unmarked) [BC13, (E)-N-(2-(5-(3-(3,5-dichloro-4-fluorophenyl)-4,4,4-trifluorobut-1-en-1-yl)-1H-indol-1-yl)-2-oxoethyl)-3,3,3-trifluoropropanamide] | 50 to 100 | 50 to 100 |
| O=C(Cn1ncc2cc(/C=C/C(c3cc(Cl)c(F)c(Cl)c3)C(F)(F)F)ccc2c1=O)NCC(F)(F)F (centres unmarked) [BC14, (E)-2-(6-(3-(3,5-dichloro-4-fluorophenyl)-4,4,4-trifluorobut-1-en-1-yl)-1-oxophthalazin-2(1H)-yl)-N-(2,2,2-trifluoroethyl)acetamide] | 50 to 100 | 0 |
| CC(=O)NCc1ccc(/C=C/C(c2cc(Cl)cc(Cl)c2)C(F)(F)F)cc1 (centres unmarked) [CC1, (E)-N-(4-(3-(3,5-dichlorophenyl)-4,4,4-trifluorobut-1-enyl)benzyl)acetamide] | 0 | 0 |
| O=C(NCc1ccc(/C=C/C(c2cc(Cl)cc(Cl)c2)C(F)(F)F)cc1)C1CC1 (centres unmarked) [CC2] | 50 to 100 | 50 to 100 |
| O=C(CC(F)(F)F)NCc1ccc(/C=C/C(c2cc(Cl)cc(Cl)c2)C(F)(F)F)cc1 (centres unmarked) [CC3] | 50 to 100 | 50 to 100 |
| CCC(=O)NCc1ccc(/C=C/C(c2cc(Cl)cc(Cl)c2)C(F)(F)F)cc1 (centres unmarked) [CC4] | 50 to 100 | 0 to 50 |
| O=C(NCc1ccc(/C=C/C(c2cc(Cl)c(Cl)c(Cl)c2)C(F)(F)F)cc1)C1CC1 (centres unmarked) [CC5] | 50 to 100 | 50 to 100 |
| O=C(CC(F)(F)F)NCc1ccc(/C=C/C(c2cc(Cl)c(Cl)c(Cl)c2)C(F)(F)F)cc1 (centres unmarked) [CC6] | 50 to 100 | 50 to 100 |
| CC(=O)NCc1ccc(/C=C/C(c2cc(Cl)cc(Cl)c2)C(F)(F)F)cc1Cl (centres unmarked) [CC7, (E)-N-(2-chloro-4-(3-(3,5-dichlorophenyl)-4,4,4-trifluorobut-1-en-1-yl)benzyl)acetamide] | 50 to 100 | 50 to 100 |
| O=C(NCc1ccc(/C=C/C(c2cc(Cl)cc(Cl)c2)C(F)(F)F)cc1Cl)C1CC1 (centres unmarked) [CC8] | 50 to 100 | 50 to 100 |
| O=C(CC(F)(F)F)NCc1ccc(/C=C/C(c2cc(Cl)cc(Cl)c2)C(F)(F)F)cc1Cl (centres unmarked) [CC9] | 50 to 100 | 50 to 100 |
| O=C(CC(F)(F)F)NCc1ccc(/C=C/C(c2cc(Cl)c(Cl)c(Cl)c2)C(F)(F)F)cc1Cl (centres unmarked) [CC10] | 50 to 100 | 50 to 100 |
| O=C(NCc1ccc(/C=C/C(c2cc(Cl)c(Cl)c(Cl)c2)C(F)(F)F)cc1Cl)C1CC1 (centres unmarked) [CC11] | 50 to 100 | 50 to 100 |
| CC(C)(C)C(=O)NCc1ccc(/C=C/C(c2cc(Cl)c(Cl)c(Cl)c2)C(F)(F)F)cc1Cl (centres unmarked) [CC12] | 0 | 0 |
| O=C(NCc1ccc(/C=C/C(c2cc(Cl)c(Cl)c(Cl)c2)C(F)(F)F)cc1)c1ccnc(Cl)c1 (centres unmarked) [CC13] | 50 to 100 | 50 to 100 |
| O=C(Cc1ccc(Cl)nc1)NCc1ccc(/C=C/C(c2cc(Cl)c(Cl)c(Cl)c2)C(F)(F)F)cc1Cl (centres unmarked) [CC14] | 50 to 100 | 0 |

| Structure (SMILES) | mortality at 50 µg/cm2 [1] [%] | mortality at 50 µg/cm2 [2] [%] |
| --- | --- | --- |
| O=C(NCc1ccc(/C=C/C(c2cc(Cl)c(F)c(Cl)c2)C(F)(F)F)cc1Cl)C1CC1 (centres unmarked) [CC15] | 50 to 100 | 50 to 100 |
| O=C(CC(F)(F)F)NCc1ccc(/C=C/C(c2cc(Cl)c(F)c(Cl)c2)C(F)(F)F)cc1 (centres unmarked) [CC16] | 50 to 100 | 50 to 100 |
| O=C(NCc1ccc(/C=C/C(c2ccc(Cl)c(Cl)c2)C(F)(F)F)cc1Cl)C1CC1 (centres unmarked) [CC17] | 50 to 100 | 50 to 100 |
| O=C(CC(F)(F)F)NCc1ccc(/C=C/C(c2ccc(Cl)c(Cl)c2)C(F)(F)F)cc1Cl (centres unmarked) [CC18] | 50 to 100 | 50 to 100 |
| CSCCC(=O)NCc1ccc(/C=C/C(c2cc(Cl)c(Cl)c(Cl)c2)C(F)(F)F)cc1Cl (centres unmarked) [CC19] | 50 to 100 | 50 to 100 |
| FC(F)(F)C(/C=C/c1ccc(CNC(=S)C2CC2)c(Cl)c1)c1cc(Cl)c(Cl)c(Cl)c1 (centres unmarked) [CC20] | 50 to 100 | 50 to 100 |
| O=C(NCc1ccc(/C=C/C(c2cc(Cl)cc(Cl)c2)C(F)(F)F)cc1C(F)(F)F)C1CC1 (centres unmarked) [CC21] | 50 to 100 | 50 to 100 |
| O=C(NCc1ccc(/C=C/C(c2cc(Cl)c(Cl)c(Cl)c2)C(F)(F)F)cc1C(F)(F)F)C1CC1 (centres unmarked) [CC22] | 50 to 100 | 50 to 100 |
| O=C(NCc1ccc(/C=C/C(c2cc(Cl)c(Cl)c(Cl)c2)C(F)(F)F)cc1C(F)(F)F)c1cccnc1 (centres unmarked) [CC23] | 50 to 100 | 50 to 100 |
| O=C(CC(F)(F)F)NCc1ccc(/C=C/C(c2cc(Cl)c(Cl)c(Cl)c2)C(F)(F)F)cc1C(F)(F)F (centres unmarked) [CC24] | 50 to 100 | 50 to 100 |
| O=C(CC(F)(F)F)NCc1ccc(/C=C/C(c2cc(Cl)c(Cl)c(Cl)c2)C(F)(F)F)cc1Br (centres unmarked) [CC25] | 50 to 100 | 50 to 100 |
| O=C(NCc1ccc(/C=C/C(c2cc(Cl)c(Cl)c(Cl)c2)C(F)(F)F)cc1Br)C1CC1 (centres unmarked) [CC26] | 50 to 100 | 0 |
| O=C(CC(F)(F)F)NCc1ccc(/C=C/C(c2cc(Cl)c(Cl)c(Cl)c2)C(F)(F)F)cc1F (centres unmarked) [CC27] | 50 to 100 | 50 to 100 |
| O=C(NCc1ccc(/C=C/C(c2cc(Cl)c(Cl)c(Cl)c2)C(F)(F)F)cc1F)C1CC1 (centres unmarked) [CC28] | 50 to 100 | 50 to 100 |
| O=C(C1CC1)N(Cc1ccccn1)Cc1ccc(/C=C/C(c2cc(Cl)c(Cl)c(Cl)c2)C(F)(F)F)cc1C(F)(F)F (centres unmarked) [CC29, (E)-N-(pyridin-2-ylmethyl)-N-(4-(4,4,4-trifluoro-3-(3,4,5-trichlorophenyl)but-1-enyl)-2-(trifluoromethyl)benzyl)cyclopropanecarboxamide] | 50 to 100 | 50 to 100 |
| CS(=O)(=O)CCC(=O)NCc1ccc(/C=C/C(c2cc(Cl)c(Cl)c(Cl)c2)C(F)(F)F)cc1Cl (centres unmarked) [CC30, (E)-N-(2-chloro-4-(4,4,4-trifluoro-3-(3,4,5-trichlorophenyl)but-1-en-1-yl)benzyl)-3-(methylsulfonyl)propanamide] | 50 to 100 | 50 to 100 |
| CCNC(=O)NCc1ccc(/C=C/C(c2cc(Cl)cc(Cl)c2)C(F)(F)F)cc1Cl (centres unmarked) [CC31, (E)-1-(2-chloro-4-(3-(3,5-dichlorophenyl)-4,4,4-trifluorobut-1-en-1-yl)benzyl)-3-ethylurea] | 0 to 50 | 0 |
| CCNC(=O)NCc1ccc(/C=C/C(c2cc(Cl)c(Cl)c(Cl)c2)C(F)(F)F)cc1C(F)(F)F (centres unmarked) [CC32] | 50 to 100 | 50 to 100 |
| CCNC(=O)NCc1ccc(/C=C/C(c2cc(Cl)c(Cl)c(Cl)c2)C(F)(F)F)cc1Br (centres unmarked) [CC33] | 50 to 100 | 50 to 100 |
| O=C(NCc1ccc(/C=C/C(c2cc(Cl)c(Cl)c(Cl)c2)C(F)(F)F)cc1Cl)N1CCOCC1 (centres unmarked) [CC34] | 50 to 100 | 50 to 100 |
| O=C(NCc1ccc(/C=C/C(c2cc(Cl)c(Cl)c(Cl)c2)C(F)(F)F)cc1Cl)Nc1ccccn1 (centres unmarked) [CC35] | 0 | 0 |
| CN(C)C(=O)NCc1ccc(/C=C/C(c2cc(Cl)c(Cl)c(Cl)c2)C(F)(F)F)cc1Cl (centres unmarked) [CC36, (E)-3-(2-chloro-4-(4,4,4-trifluoro-3-(3,4,5-trichlorophenyl)but-1-en-1-yl)benzyl)-1,1-dimethylurea] | 50 to 100 | 50 to 100 |
| CCNC(=S)NCc1ccc(/C=C/C(c2cc(Cl)c(Cl)c(Cl)c2)C(F)(F)F)cc1Cl (centres unmarked) [CC37, (E)-1-(2-chloro-4-(4,4,4-trifluoro-3-(3,4,5-trichlorophenyl)but-1-en-1-yl)benzyl)-3-ethylthiourea] | 50 to 100 | 50 to 100 |
